Measurements taken from the supplement of paper PMC10307832.

Columns and labels:
Test in all cases: relative viability (nuclei count vs DMSO), 5 days (fraction); higher = more cells survive
Obatoclax + Alpelisib = compound: COC1=CC(c2cc3ccccc3[nH]2)=N/C1=C\c1[nH]c(C)cc1C [Obatoclax] + Cc1nc(NC(=O)N2CCC[C@H]2C(N)=O)sc1-c1ccnc(C(C)(C)C(F)(F)F)c1 [Alpelisib] (partner 2 µM)
In short: (§1)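 Dosing by pin tool came one day after lung cancer cell lines were seeded in 1536-well plates, using either one drug or a fixed anchor-drug dose plus five library-drug doses (not always all listed) in √10 steps. After 5 days, nuclei were counted on 4× images. Relative viability is treated-well nuclei count divided by vehicle-well nuclei count, and values are medians of duplicate plates.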

Obatoclax + Foretinib = compound: COC1=CC(c2cc3ccccc3[nH]2)=N/C1=C\c1[nH]c(C)cc1C [Obatoclax] + COc1cc2c(Oc3ccc(NC(=O)C4(C(=O)Nc5ccc(F)cc5)CC4)cc3F)ccnc2cc1OCCCN1CCOCC1 [Foretinib] (partner 0.25 µM)
In short: as §1

[1] = compound: CC1=CC(=NN1)NC2=CC(=NC(=N2)/C=C/C3=CC=CC=C3)N4CCN(CC4)C + NC(=O)Nc1cc(-c2cccc(F)c2)sc1C(=O)N[C@H]1CCCNC1 [AZD7762] (partner 0.2 µM)
In short: as §1

Bortezomib + Linsitinib = compound: CC(C)C[C@H](NC(=O)[C@H](Cc1ccccc1)NC(=O)c1cnccn1)B(O)O [Bortezomib] + C[C@]1(O)C[C@@H](c2nc(-c3ccc4ccc(-c5ccccc5)nc4c3)c3c(N)nccn32)C1 [Linsitinib] (partner 1 µM)
In short: as §1

Cell Line | relative viability (Obatoclax + Alpelisib; first compound 0.01 µM) | relative viability (Obatoclax + Alpelisib; first compound 0.03162 µM) | relative viability (Obatoclax + Alpelisib; first compound 0.1 µM) | relative viability (Obatoclax + Alpelisib; first compound 0.3162 µM) | relative viability (Obatoclax + Alpelisib; first compound 1 µM) | relative viability (Obatoclax + Foretinib; first compound 0.01 µM) | relative viability (Obatoclax + Foretinib; first compound 0.03162 µM) | relative viability (Obatoclax + Foretinib; first compound 0.1 µM) | relative viability (Obatoclax + Foretinib; first compound 0.3162 µM) | relative viability (Obatoclax + Foretinib; first compound 1 µM) | relative viability ([1]; first compound 0.08 µM) | relative viability ([1]; first compound 0.253 µM) | relative viability ([1]; first compound 0.8 µM) | relative viability ([1]; first compound 2.53 µM) | relative viability ([1]; first compound 8 µM) | relative viability (Bortezomib + Linsitinib; first compound 0.0002 µM) | relative viability (Bortezomib + Linsitinib; first compound 0.000632 µM) | relative viability (Bortezomib + Linsitinib; first compound 0.002 µM) | relative viability (Bortezomib + Linsitinib; first compound 0.006325 µM) | relative viability (Bortezomib + Linsitinib; first compound 0.02 µM)
201T | 1 | 0.983 | 1.02 | 1.04 | 1.08 | 1.09 | 1.12 | 1.1 | 1.09 | 0.768 | 0.667 | 0.526 | 0.628 | 0.538 | 0.53 | 1.04 | 1.1 | 0.921 | 1.08 | 0.4
A549 | 0.76 | 0.876 | 0.748 | 0.298 | 0.0816 | 0.958 | 0.947 | 0.979 | 0.959 | 0.764 |  |  |  |  |  | 0.667 | 0.538 | 0.423 | 0.122 | 0.0542
A-427 | 1.14 | 1.09 | 1.13 | 1.04 | 1.01 | 1.16 | 0.989 | 1.01 | 0.972 | 0.984 | 0.83 | 0.683 | 0.713 | 0.238 | 0.163 | 1.06 | 1.03 | 1.1 | 1.16 | 0.285
ABC-1 | 1.04 | 1.18 | 1.09 | 1.19 | 0.573 | 1.11 | 1.15 | 1.23 | 1.06 | 0.975 |  | 1.16 | 0.795 | 0.907 | 0.175 | 0.806 | 0.688 | 0.308 | 0.257 | 0.234
BEN | 0.963 | 1 | 0.904 | 1.16 | 0.911 | 0.864 | 0.614 |  | 0.631 | 0.678 | 0.734 | 0.726 | 0.667 | 0.508 | 0.283 | 0.814 | 0.927 | 0.763 | 0.592 | 0.173
CAL-12T | 1.14 | 1.29 | 1.01 | 0.695 | 0.129 | 1.11 | 1.16 | 1.09 | 0.343 | 0.134 | 0.626 | 0.655 | 0.647 | 0.319 | 0.152 | 0.898 | 0.852 | 0.742 | 0.662 | 0.165
COR-L23 | 0.765 | 0.808 | 0.675 | 0.209 | 0.182 | 0.878 | 1.05 | 0.927 | 0.51 | 0.323 |  |  |  |  |  | 0.994 | 0.828 | 0.495 | 0.0469 | 0.0499
